Source: patent US8314256B2, “Modulators of ATP-binding cassette transporters” (Vertex Pharmaceuticals Incorporated, priority 2005, dated 2012)

Molecular target: T1, ΔF508-CFTR (Homo sapiens, UniProt P13569, DEL508-508)
T1 construct: expressed in transfected cells
Assay: Membrane potential optical assay of ΔF508-CFTR modulation (Table 3 EC50; the table does not name the assay)
Assay type: cell-based
From the text: Membrane Potential Optical Methods for Assaying ΔF508-CFTR Modulation Properties of Compounds
The optical membrane potential assay utilized voltage-sensitive FRET sensors described by Gonzalez and Tsien (See, Gonzalez, J. E. and R. Y. Tsien (1995) “Voltage sensing by fluorescence resonance energy transfer in single cells” Biophys J 69(4): 1272-80, and Gonzalez, J. E. and R. Y. Tsien (1997) “Improved indicators of cell membrane potential that use fluorescence resonance energy transfer” Chem Biol 4(4): 269-77) in combination with instrumentation for measuring fluorescence changes such as the Voltage/Ion Probe Reader (VIPR) (See, Gonzalez, J. E., K. Oades, et al. (1999) “Cell-based assays and instrumentation for screening ion-channel targets” Drug Discov Today 4(9): 431-439).
These voltage sensitive assays are based on the change in fluorescence resonant energy transfer (FRET) between the membrane-soluble, voltage-sensitive dye, DiSBAC2(3), and a fluorescent phospholipid, CC2-DMPE, which is attached to the outer leaflet of the plasma membrane and acts as a FRET donor. Changes in membrane potential (Vm) cause the negatively charged DiSBAC2(3) to redistribute across the plasma membrane and the amount of energy transfer from CC2-DMPE changes accordingly. The changes in fluorescence emission were monitored using VIPR II, which is an integrated liquid handler and fluorescent detector designed to conduct cell-based screens in 96- or 384-well microtiter plates.
Identification of Correction Compounds
To identify small molecules that correct the trafficking defect associated with ΔF508-CFTR; a single-addition HTS assay format was developed. The cells were incubated in serum-free medium for 16 hrs at 37° C. in the presence or absence (negative control) of test compound. As a positive control, cells plated in 384-well plates were incubated for 16 hrs at 27° C. to “temperature-correct” ΔF508-CFTR. The cells were subsequently rinsed 3× with Krebs Ringers solution and loaded with the voltage-sensitive dyes. To activate ΔF508-CFTR, 10 μM forskolin and the CFTR potentiator, genistein (20 μM), were added along with Cl^−-free medium to each well. The addition of Cl^−-free medium promoted Cl^− efflux in response to ΔF508-CFTR activation and the resulting membrane depolarization was optically monitored using the FRET-based voltage-sensor dyes.
Identification of Potentiator Compounds
To identify potentiators of ΔF508-CFTR, a double-addition HTS assay format was developed. During the first addition, a Cl^−-free medium with or without test compound was added to each well. After 22 sec, a second addition of Cl^−-free medium containing 2-10 μM forskolin was added to activate ΔF508-CFTR. The extracellular Cl^− concentration following both additions was 28 mM, which promoted Cl^− efflux in response to ΔF508-CFTR activation and the resulting membrane depolarization was optically monitored using the FRET-based voltage-sensor dyes. Solutions
NIH3T3 mouse fibroblasts stably expressing ΔF508-CFTR are used for optical measurements of membrane potential. The cells are maintained at 37° C. in 5% CO2 and 90% humidity in Dulbecco's modified Eagle's medium supplemented with 2 mM glutamine, 10% fetal bovine serum, 1×NEAA, […]-ME, 1× pen/strep, and 25 mM HEPES in 175 cm^2 culture flasks. For all optical assays, the cells were seeded at 30,000/well in 384-well matrigel-coated plates and cultured for 2 hrs at 37° C. before culturing at 27° C. for 24 hrs. for the potentiator assay. For the correction assays, the cells are cultured at 27° C. or 37° C. with and without compounds for 16-24 hours

T1 sequence (P13569 with tags, fused parts or gaps DEL508-508): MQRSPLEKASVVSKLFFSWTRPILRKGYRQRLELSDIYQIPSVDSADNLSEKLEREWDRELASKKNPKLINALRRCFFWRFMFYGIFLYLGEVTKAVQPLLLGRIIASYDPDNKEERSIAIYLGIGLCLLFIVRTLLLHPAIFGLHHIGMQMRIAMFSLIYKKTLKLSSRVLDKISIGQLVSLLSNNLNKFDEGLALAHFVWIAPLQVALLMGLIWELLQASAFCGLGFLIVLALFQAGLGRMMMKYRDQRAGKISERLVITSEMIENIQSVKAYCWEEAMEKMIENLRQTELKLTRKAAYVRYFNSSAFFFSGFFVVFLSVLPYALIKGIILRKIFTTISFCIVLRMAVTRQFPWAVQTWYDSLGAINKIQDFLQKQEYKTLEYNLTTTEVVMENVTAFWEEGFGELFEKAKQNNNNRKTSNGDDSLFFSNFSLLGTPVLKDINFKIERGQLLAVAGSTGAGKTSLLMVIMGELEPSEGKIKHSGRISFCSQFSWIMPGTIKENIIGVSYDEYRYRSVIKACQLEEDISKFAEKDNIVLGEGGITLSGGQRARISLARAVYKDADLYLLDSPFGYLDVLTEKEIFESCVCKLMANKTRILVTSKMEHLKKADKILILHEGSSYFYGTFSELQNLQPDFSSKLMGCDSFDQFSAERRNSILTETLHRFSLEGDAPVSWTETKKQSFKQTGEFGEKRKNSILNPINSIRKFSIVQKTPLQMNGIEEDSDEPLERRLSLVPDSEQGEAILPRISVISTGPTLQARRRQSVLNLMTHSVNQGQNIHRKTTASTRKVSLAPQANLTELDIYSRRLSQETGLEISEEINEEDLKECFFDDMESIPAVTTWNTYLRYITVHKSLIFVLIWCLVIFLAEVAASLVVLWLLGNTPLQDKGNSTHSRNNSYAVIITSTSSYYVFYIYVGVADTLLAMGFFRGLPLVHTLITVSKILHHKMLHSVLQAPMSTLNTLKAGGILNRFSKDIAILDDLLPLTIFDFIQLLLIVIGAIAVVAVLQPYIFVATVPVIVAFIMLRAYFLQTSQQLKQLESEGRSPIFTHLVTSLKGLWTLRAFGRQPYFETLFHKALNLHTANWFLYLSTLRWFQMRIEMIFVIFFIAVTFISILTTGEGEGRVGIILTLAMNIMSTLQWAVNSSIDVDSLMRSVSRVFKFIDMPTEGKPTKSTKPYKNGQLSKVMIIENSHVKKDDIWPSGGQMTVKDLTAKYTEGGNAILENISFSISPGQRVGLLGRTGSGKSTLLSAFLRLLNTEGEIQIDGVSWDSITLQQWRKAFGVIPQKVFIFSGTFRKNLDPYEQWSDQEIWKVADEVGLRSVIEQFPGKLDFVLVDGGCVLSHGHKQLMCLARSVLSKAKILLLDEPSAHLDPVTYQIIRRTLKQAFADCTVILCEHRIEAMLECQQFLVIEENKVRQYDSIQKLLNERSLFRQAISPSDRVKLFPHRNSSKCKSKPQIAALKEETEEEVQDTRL

O=C(NC(CSCc1ccccc1)CSCc1ccccc1)C(=O)c1c[nH]c2ccccc12 [Compound 17]
EC50: 1000 to 5000 nM

O=C(NCC(c1ccccc1)c1ccccc1)C(=O)c1c[nH]c2ccccc12 [Compound 18, N-(2,2-Diphenylethyl)-2-(1H-indol-3-yl)-2-oxo-acetamide]
EC50: < 1000 nM

O=C(NC(c1ccccc1)c1ccccc1)C(=O)c1c[nH]c2ccccc12 [Compound 1, N-Benzhydryl-2-(1H-indol-3-yl)-2-oxo-acetamide]
EC50: < 1000 nM

Cn1cc(C(=O)C(=O)N(Cc2ccccc2)Cc2ccccc2)c2ccccc21 [Compound 15, N,N-Dibenzyl-2-(1-methyl-1H-indol-3-yl)-2-oxo-acetamide]
EC50: 1000 to 5000 nM

O=C(NCCc1ccccc1)C(=O)c1c[nH]c2ccccc12 [Compound 2, 2-(1H-Indol-3-yl)-2-oxo-N-phenethyl-acetamide]
EC50: < 1000 nM

Cn1cc(C(=O)C(=O)NCCc2ccccc2)c2ccccc21 [Compound 10, 2-(1-Methyl-1H-indol-3-yl)-2-oxo-N-phenethyl-acetamide]
EC50: > 5000 nM

O=C(C(=O)N(Cc1ccccc1)Cc1ccccc1)c1c[nH]c2ccccc12 [Compound 5, N,N-Dibenzyl-2-(1H-indol-3-yl)-2-oxo-acetamide]
EC50: < 1000 nM

CN(Cc1ccccc1)C(=O)C(=O)c1c[nH]c2ccccc12 [Compound 14, N-Benzyl-2-(1H-indol-3-yl)-N-methyl-2-oxo-acetamide]
EC50: > 5000 nM

CC(=O)Nc1ccc(OCCCNC(=O)C(=O)c2c[nH]c3ccc(Br)cc23)cc1 [Compound 8]
EC50: 1000 to 5000 nM

COc1ccccc1N1CCN(C(=O)C(=O)c2c[nH]c3ccc(Br)cc23)CC1 [Compound 7]
EC50: 1000 to 5000 nM

O=C(NCCc1ccccc1)C(=O)c1c[nH]c2ccc(Br)cc12 [Compound 16]
EC50: < 1000 nM

O=C(NC(CN1CCOCC1)c1ccccc1)C(=O)c1c[nH]c2ccccc12 (centres unmarked) [Compound 4]
EC50: > 5000 nM

COc1ccc(CCNC(=O)C(=O)c2c[nH]c3ccc(Br)cc23)cc1 [Compound 13]
EC50: 1000 to 5000 nM

Cn1cc(C(=O)C(=O)NCc2ccccc2)c2ccccc21 [Compound 9]
EC50: > 5000 nM

O=C(NCc1ccccc1)C(=O)c1c[nH]c2ccccc12 [Compound 6]
EC50: < 1000 nM

Cc1ccc(Cn2cc(SCCNC(=O)C(=O)c3c[nH]c4ccccc34)c3ccccc32)cc1 [Compound 3]
EC50: < 1000 nM

Cn1cc(C(=O)C(=O)NC(c2ccccc2)c2ccccc2)c2ccccc21 [Compound 12, N-Benzhydryl-2-(1-methyl-1H-indol-3-yl)-2-oxo-acetamide]
EC50: > 5000 nM
